{"source": "patent US6403055B1", "about": "“Diagnostic imaging contrast agent with improved in serum relaxivity” (Dibra S.p.A., priority 1996, dated 2002)", "key": {"[1]": {"assay": "Relaxivity (r1, r2) in saline", "format": "physicochemical", "conditions": "NaCl 0.15M in water - pH 7.3 - 20 MHz - 39° C.", "text": "(§1) Relaxivity values of the contrast agent of the present invention have been tested either in saline or in human serum obtained by Seronorm™ Human, freeze-dried human serum produced by Nycomed Pharma AS, Oslo, Norway. Serum obtained from said Seronorm™ is substantially equivalent to the fresh one, so its use in the relaxivity determination grants a good picture of the “in vivo” behaviour and, further, an excellent reproducibility of this test."}, "[2]": {"assay": "Relaxivity (r1, r2) in human serum (Seronorm™ Human)", "format": "physicochemical", "conditions": "Between 0 and 1 mM (Seronorm™ Human) - 20 MHz - 39° C.", "text": "as §1\nThe compounds object of the present invention are characterised by very high r1 and r2 relaxivity values. When measured in Seronorm™ Human at 20 MHz, at a temperature of 39° C., and at a concentration comprised from 0 to 1 mM, the compounds of the present invention have r1 relaxivity equal to or, preferably, higher than 15 s^−1mm^−1."}}, "data": [{"smiles": "CCC(C)C(C(=O)[O-])N(CCN(CCN(CC(=O)[O-])C(C(=O)[O-])C(C)CC)[C@H](C(=O)[O-])[C@@H](C)CC)CC(=O)[O-].[Gd+3].[Na+].[Na+]", "note": "(relative stereo) [Compound 2, [[[1S-[1R*(1R*,2R*),2R*]]-N,N-Bis[2-[(carboxymethyl)(1-carboxy-2-methylbutyl)amino]ethyl]-L-isoleucinate-(5-)]gadolinate(2-)]disodium salt.]", "values": [{"measurement": "Relaxivity Saline r1", "setting": "[1]", "value": 5.07, "unit": "mM⁻¹ s⁻¹"}, {"measurement": "Relaxivity Serum r1", "setting": "[2]", "value": 11.9, "unit": "mM⁻¹ s⁻¹"}]}]}
